Experimental data: PubChem BioAssay (NCI)
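GI50 = concentration required for 50% inhibition of growth. At the TGI there is no net growth.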

Key:
Assay in all cases: NCI-60 cell line screen, 384-well format
786-0 renal = tested on: 786-0 renal
A498 renal = tested on: A498 renal
A549 NSCLC = tested on: A549 NSCLC
ACHN renal = tested on: ACHN renal
BT-549 breast = tested on: BT-549 breast
CAKI-1 renal = tested on: CAKI-1 renal
CCRF-CEM leukemia = tested on: CCRF-CEM leukemia
COLO 205 colon = tested on: COLO 205 colon
DU-145 prostate = tested on: DU-145 prostate
EKVX NSCLC = tested on: EKVX NSCLC
HCC-2998 colon = tested on: HCC-2998 colon
HCT-15 colon = tested on: HCT-15 colon
HL-60(TB) leukemia = tested on: HL-60(TB) leukemia
HOP-62 NSCLC = tested on: HOP-62 NSCLC
HOP-92 NSCLC = tested on: HOP-92 NSCLC
HS 578T breast = tested on: HS 578T breast
HT29 colon = tested on: HT29 colon
IGROV1 ovarian = tested on: IGROV1 ovarian
KM12 colon = tested on: KM12 colon
M14 melanoma = tested on: M14 melanoma
MALME-3M melanoma = tested on: MALME-3M melanoma
MCF7 breast = tested on: MCF7 breast
MDA-MB-231 breast = tested on: MDA-MB-231 breast
MDA-MB-435 melanoma = tested on: MDA-MB-435 melanoma
MDA-MB-468 breast = tested on: MDA-MB-468 breast
MOLT-4 leukemia = tested on: MOLT-4 leukemia
NCI-H226 lung = tested on: NCI-H226 lung
NCI-H23 lung = tested on: NCI-H23 lung
NCI-H322M lung = tested on: NCI-H322M lung
NCI-H460 NSCLC = tested on: NCI-H460 NSCLC
NCI-H522 lung = tested on: NCI-H522 lung
NCI/ADR-RES ovarian = tested on: NCI/ADR-RES ovarian
OVCAR-3 ovarian = tested on: OVCAR-3 ovarian
OVCAR-4 ovarian = tested on: OVCAR-4 ovarian
OVCAR-5 ovarian = tested on: OVCAR-5 ovarian
OVCAR-8 ovarian = tested on: OVCAR-8 ovarian
PC-3 prostate = tested on: PC-3 prostate
RPMI-8226 leukemia = tested on: RPMI-8226 leukemia
RXF 393 renal = tested on: RXF 393 renal
SF-268 CNS = tested on: SF-268 CNS
SF-295 CNS = tested on: SF-295 CNS
SF-539 CNS = tested on: SF-539 CNS
SK-MEL-2 melanoma = tested on: SK-MEL-2 melanoma
SK-MEL-28 melanoma = tested on: SK-MEL-28 melanoma
SK-MEL-5 melanoma = tested on: SK-MEL-5 melanoma
SK-OV-3 ovarian = tested on: SK-OV-3 ovarian
SN12C renal = tested on: SN12C renal
SNB-19 CNS = tested on: SNB-19 CNS
SNB-75 CNS = tested on: SNB-75 CNS
SR leukemia = tested on: SR leukemia
SW-620 colon = tested on: SW-620 colon
T-47D breast = tested on: T-47D breast
TK-10 renal = tested on: TK-10 renal
U251 glioblastoma = tested on: U251 glioblastoma
UACC-257 melanoma = tested on: UACC-257 melanoma
UACC-62 melanoma = tested on: UACC-62 melanoma

## CN(C)CCNC(=O)c1cccc2cc3ccccc3nc12
786-0 renal
  GI50: 1070 nM
  TGI: 3040 nM
A498 renal
  GI50: 539 nM
  TGI: 2000 nM
A549 NSCLC
  GI50: 619 nM
  TGI: 1900 nM
ACHN renal
  GI50: 961 nM
  TGI: 2280 nM
BT-549 breast
  GI50: 532 nM
  TGI: 1680 nM
CAKI-1 renal
  GI50: 1020 nM
  TGI: 2490 nM
CCRF-CEM leukemia
  GI50: 246 nM
  TGI: 673 nM
COLO 205 colon
  GI50: 336 nM
  TGI: 651 nM
DU-145 prostate
  GI50: 1520 nM
  TGI: 3120 nM
EKVX NSCLC
  GI50: 1740 nM
  TGI: 3670 nM
HCC-2998 colon
  GI50: 1460 nM
  TGI: 2860 nM
HCT-15 colon
  GI50: 628 nM
  TGI: 2020 nM
HL-60(TB) leukemia
  GI50: 252 nM
  TGI: 462 nM
HOP-62 NSCLC
  GI50: 494 nM
  TGI: 1850 nM
HOP-92 NSCLC
  GI50: 688 nM
  TGI: 2150 nM
HS 578T breast
  GI50: 287 nM
  TGI: 883 nM
HT29 colon
  GI50: 996 nM
  TGI: 2210 nM
IGROV1 ovarian
  GI50: 1140 nM
  TGI: 2460 nM
KM12 colon
  GI50: 862 nM
  TGI: 2440 nM
M14 melanoma
  GI50: 1140 nM
  TGI: 2380 nM
MALME-3M melanoma
  GI50: 932 nM
  TGI: 2110 nM
MCF7 breast
  GI50: 1120 nM
  TGI: 4170 nM
MDA-MB-231 breast
  GI50: 958 nM
  TGI: 2220 nM
MDA-MB-435 melanoma
  GI50: 1640 nM
  TGI: 3230 nM
MDA-MB-468 breast
  GI50: 411 nM
  TGI: 791 nM
MOLT-4 leukemia
  GI50: 169 nM
  TGI: 310 nM
NCI-H226 lung
  GI50: 898 nM
  TGI: 2440 nM
NCI-H23 lung
  GI50: 1260 nM
  TGI: 2570 nM
NCI-H322M lung
  GI50: 1740 nM
  TGI: 3530 nM
NCI-H460 NSCLC
  GI50: 375 nM
  TGI: 1250 nM
NCI-H522 lung
  GI50: 1240 nM
  TGI: 2510 nM
NCI/ADR-RES ovarian
  GI50: 876 nM
  TGI: 2270 nM
OVCAR-3 ovarian
  GI50: 1340 nM
  TGI: 2810 nM
OVCAR-4 ovarian
  GI50: 1790 nM
  TGI: 3610 nM
OVCAR-5 ovarian
  GI50: 1440 nM
  TGI: 3690 nM
OVCAR-8 ovarian
  GI50: 611 nM
  TGI: 1840 nM
PC-3 prostate
  GI50: 1460 nM
  TGI: 3290 nM
RPMI-8226 leukemia
  GI50: 506 nM
  TGI: 1490 nM
RXF 393 renal
  GI50: 1120 nM
  TGI: 2360 nM
SF-268 CNS
  GI50: 1150 nM
  TGI: 2470 nM
SF-295 CNS
  GI50: 974 nM
  TGI: 2380 nM
SF-539 CNS
  GI50: 449 nM
  TGI: 1510 nM
SK-MEL-2 melanoma
  GI50: 3280 nM
  TGI: 4780 nM
SK-MEL-28 melanoma
  GI50: 1620 nM
  TGI: 3010 nM
SK-MEL-5 melanoma
  GI50: 1180 nM
  TGI: 2420 nM
SK-OV-3 ovarian
  GI50: 1200 nM
  TGI: 3290 nM
SN12C renal
  GI50: 1260 nM
  TGI: 2740 nM
SNB-19 CNS
  GI50: 784 nM
  TGI: 2690 nM
SNB-75 CNS
  GI50: 806 nM
  TGI: 2130 nM
SR leukemia
  GI50: 198 nM
  TGI: 349 nM
SW-620 colon
  GI50: 718 nM
  TGI: 1990 nM
T-47D breast
  GI50: 2050 nM
  TGI: 4090 nM
TK-10 renal
  GI50: 1250 nM
  TGI: 2950 nM
U251 glioblastoma
  GI50: 741 nM
  TGI: 2680 nM
UACC-257 melanoma
  GI50: 1650 nM
  TGI: 3050 nM
UACC-62 melanoma
  GI50: 1000 nM
  TGI: 2200 nM

## Nc1ccn([C@H]2C[C@@H](O)[C@@H](CO)S2)c(=O)n1
786-0 renal
  GI50: 54100 nM
  TGI: > 100000 nM
A498 renal
  GI50: > 100000 nM
  TGI: > 100000 nM
A549 NSCLC
  GI50: > 100000 nM
  TGI: > 100000 nM
ACHN renal
  GI50: > 100000 nM
  TGI: > 100000 nM
BT-549 breast
  GI50: 896 nM
  TGI: 26300 nM
CAKI-1 renal
  GI50: > 100000 nM
  TGI: > 100000 nM
CCRF-CEM leukemia
  GI50: 55.2 nM
  TGI: 862 nM
COLO 205 colon
  GI50: > 100000 nM
  TGI: > 100000 nM
DU-145 prostate
  GI50: 20200 nM
  TGI: > 100000 nM
EKVX NSCLC
  GI50: > 100000 nM
  TGI: > 100000 nM
HCC-2998 colon
  GI50: 4980 nM
  TGI: > 100000 nM
HCT-15 colon
  GI50: 1710 nM
  TGI: > 100000 nM
HL-60(TB) leukemia
  GI50: 306 nM
  TGI: 1260 nM
HOP-62 NSCLC
  GI50: 21800 nM
  TGI: > 100000 nM
HOP-92 NSCLC
  GI50: 2350 nM
  TGI: > 100000 nM
HS 578T breast
  GI50: > 100000 nM
  TGI: > 100000 nM
HT29 colon
  GI50: > 100000 nM
  TGI: > 100000 nM
IGROV1 ovarian
  GI50: > 100000 nM
  TGI: > 100000 nM
KM12 colon
  GI50: 9080 nM
  TGI: > 100000 nM
M14 melanoma
  GI50: > 100000 nM
  TGI: > 100000 nM
MALME-3M melanoma
  GI50: > 100000 nM
  TGI: > 100000 nM
MCF7 breast
  GI50: > 100000 nM
  TGI: > 100000 nM
MDA-MB-231 breast
  GI50: 2950 nM
  TGI: > 100000 nM
MDA-MB-435 melanoma
  GI50: > 100000 nM
  TGI: > 100000 nM
MDA-MB-468 breast
  GI50: > 100000 nM
  TGI: > 100000 nM
MOLT-4 leukemia
  TGI: 27.1 nM
NCI-H226 lung
  GI50: 96900 nM
  TGI: > 100000 nM
NCI-H23 lung
  GI50: > 100000 nM
  TGI: > 100000 nM
NCI-H322M lung
  GI50: > 100000 nM
  TGI: > 100000 nM
NCI-H460 NSCLC
  GI50: 204 nM
  TGI: > 100000 nM
NCI-H522 lung
  GI50: 113 nM
  TGI: 1150 nM
NCI/ADR-RES ovarian
  GI50: 1380 nM
  TGI: > 100000 nM
OVCAR-3 ovarian
  GI50: 3290 nM
  TGI: > 100000 nM
OVCAR-4 ovarian
  GI50: > 100000 nM
  TGI: > 100000 nM
OVCAR-5 ovarian
  GI50: > 100000 nM
  TGI: > 100000 nM
OVCAR-8 ovarian
  GI50: 783 nM
  TGI: 30800 nM
PC-3 prostate
  GI50: > 100000 nM
  TGI: > 100000 nM
RPMI-8226 leukemia
  GI50: 368 nM
  TGI: 1590 nM
RXF 393 renal
  GI50: 6980 nM
  TGI: > 100000 nM
SF-268 CNS
  GI50: 54400 nM
  TGI: > 100000 nM
SF-295 CNS
  GI50: > 100000 nM
  TGI: > 100000 nM
SF-539 CNS
  GI50: > 100000 nM
  TGI: > 100000 nM
SK-MEL-2 melanoma
  GI50: > 100000 nM
  TGI: > 100000 nM
SK-MEL-28 melanoma
  GI50: > 100000 nM
  TGI: > 100000 nM
SK-MEL-5 melanoma
  GI50: 804 nM
  TGI: > 100000 nM
SK-OV-3 ovarian
  GI50: > 100000 nM
  TGI: > 100000 nM
SN12C renal
  GI50: 11600 nM
  TGI: > 100000 nM
SNB-19 CNS
  GI50: 4990 nM
  TGI: > 100000 nM
SNB-75 CNS
  GI50: > 100000 nM
  TGI: > 100000 nM
SR leukemia
  GI50: 2500 nM
  TGI: 15800 nM
SW-620 colon
  GI50: > 100000 nM
  TGI: > 100000 nM
T-47D breast
  GI50: > 100000 nM
  TGI: > 100000 nM
TK-10 renal
  GI50: > 100000 nM
  TGI: > 100000 nM
U251 glioblastoma
  GI50: > 100000 nM
  TGI: > 100000 nM
UACC-257 melanoma
  GI50: > 100000 nM
  TGI: > 100000 nM
UACC-62 melanoma
  GI50: > 100000 nM
  TGI: > 100000 nM
